Measured values from patent US20170275298A1, “INHIBITORS OF THE RENAL OUTER MEDULLARY POTASSIUM CHANNEL” (Merck Sharp & Dohme Corp., priority 2014, published 2017).

These compounds were tested against T1, hROMK (hKir1.1) (Homo sapiens, UniProt P48048) (assay: Thallium Flux Assay (ROMK channel functional thallium flux assay)). Conditions: HEK293 cells stably expressing hROMK (hKir1.1); FluxOR thallium flux, FLIPR-Tetra, 30 min compound incubation; read-out: ROMK TI IC50.
T1 construct: expressed in transfected cells
T1 sequence (P48048 1-391): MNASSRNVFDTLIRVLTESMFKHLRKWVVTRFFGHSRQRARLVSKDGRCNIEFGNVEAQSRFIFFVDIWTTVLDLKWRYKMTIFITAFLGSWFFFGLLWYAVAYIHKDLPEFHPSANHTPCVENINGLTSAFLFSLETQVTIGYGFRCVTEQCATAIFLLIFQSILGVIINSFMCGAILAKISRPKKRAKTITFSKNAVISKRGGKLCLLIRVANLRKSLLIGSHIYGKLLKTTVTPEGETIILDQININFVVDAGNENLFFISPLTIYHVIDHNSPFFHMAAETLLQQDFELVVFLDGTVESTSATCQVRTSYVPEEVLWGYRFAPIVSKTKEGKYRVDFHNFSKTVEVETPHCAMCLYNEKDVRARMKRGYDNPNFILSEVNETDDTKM
Type: cell-based
Method: The following Thallium Flux Assay was performed on each of the final product compounds in the Examples.
HEK293 cells stably expressing hROMK (hKir1.1) were grown at 37° C. in a 10% CO2 humidified incubator in complete growth media: Dulbecco's Modified Eagle Medium supplemented with non-essential amino acids, Penicillin/Streptomycin/Glutamine, G418 and FBS. At >80% confluency, the media was aspirated from the flask and rinsed with 10 mL calcium/magnesium-free PBS. […] To dislodge the cell, the side of the flask was gently banged with one's hand. The cells completely titrated and then the cells were transferred to 25 mL complete media, centrifuged at 1,500 rpm for 6 min followed by resuspension in complete growth media and determine cell concentration. […] Under ideal growth conditions and appropriate tissue culture practices, this cell line is stable for 40-45 passages.
• FluxOR™ Reagent (Component A) • FluxOR™ Assay Buffer (Component B)—10× Concentrate • PowerLoad™ Concentrate (Component C)—100× Concentrate • Probenecid (Component D)—Lyophilized sample is kept at −20° C. Water soluble, 100× after solubilization in 1 mL water. […] Store at 4° C. • Thallium sulfate (Tl2SO4) Concentrate (Component G)—50 mM in water. Store at 4° C. • DMSO (dimethyl sulfoxide, Component H)—1 mL (100%)
Can be stored at room temperature • Stimulant Buffer (prepared at 5× final concentration in 1×FluxOR™ Chloride-Free Buffer): 7.5 mM thallium sulfate and 0.75 mM potassium sulfate (to give a final assay concentration of 3 mM Thallium/0.3 mM potassium). Store at 4° C. when not in use. If kept sterile, this solution is good for months.
The ROMK channel functional thallium flux assay was performed in 384 wells, using the FLIPR-Tetra instrument. HEK-hKir1.1 cells were seeded in Poly-D-Lysine microplates and kept in a 37° C.-10% CO2 incubator overnight. On the day of the experiment, the growth media was replaced with the FluxOR™ reagent loading buffer and incubated, protected from light, at ambient temperature (23-25° C.) for 90 min. The loading buffer was replaced with assay buffer±test compound followed by 30 min incubation at ambient temperature, where the thallium/potassium stimulant was added to the microplate.
1. Seed HEK-hKir1.1 cells (50 μl at 20,000 cells/well) in 384-well PDL coated Microplates 2. Allow cells to adhere overnight in humidified 37° C./10% CO2 incubator 3. Completely remove cell growth media from microplate and replace with 25 μl loading buffer 4. Incubate Microplate at room temperature, protected form light, for 90 min 5. Remove loading buffer and replace with 25 μl 1× Assay Buffer±test compound. 6. Incubate microplate at room temperature, protected from light, for 30 min 7. […] Excitation=400 nm, Emission=460 & 580 nm. Collect data for ˜10 min.
The fluorescence intensity of wells containing 3 μM of a standard control ROMK inhibitor of the present invention was used to define the ROMK-sensitive component of thallium flux. Fluorescence in the presence of test compounds was normalized to control values to provide % fluorescence change.

Compound | IC50
COc1cc(N2CCOC3(CCN(C[C@H](O)c4ccc5c(c4C)COC5=O)CC3)C2=O)ccn1 [Example 23, (R)-9-(2-hydroxy-2-(4-methyl-1-oxo-1,3-dihydroisobenzofuran-5-yl)ethyl)-4-(2-methoxypyridin-4-yl)-1-oxa-4,9-diazaspiro[5.5]undecan-5-one] | 407 nM
COc1nccc(N2CCOC3(CCN(C[C@H](O)c4ccc5c(c4C)COC5=O)CC3)C2=O)n1 [Example 24, (R)-9-(2-hydroxy-2-(4-methyl-1-oxo-1,3-dihydroisobenzofuran-5-yl)ethyl)-4-(2-methoxypyrimidin-4-yl)-1-oxa-4,9-diazaspiro[5.5]undecan-5-one] | 30.2 nM
Cc1c([C@@H](O)CN2CCC3(CC2)CCN(c2cnccn2)C3=O)ccc2c1COC2=O [Example 25, (R)-8-(2-hydroxy-2-(4-methyl-1-oxo-1,3-dihydroisobenzofuran-5-yl)ethyl)-2-(pyrazin-2-yl)-2,8-diazaspiro[4.5]decan-1-one] | 437 nM
Cc1c([C@@H](O)CN2CCC3(CC2)OCCN(c2ccncc2)C3=O)ccc2c1COC2=O [Example 26, (R)-9-(2-hydroxy-2-(4-methyl-1-oxo-1,3-dihydroisobenzofuran-5-yl)ethyl)-4-(pyridin-4-yl)-1-oxa-4,9-diazaspiro[5.5]undecan-5-one] | 238 nM
COc1nsc(N2CCOC3(CCN(C[C@H](O)c4ccc5c(c4C)COC5=O)CC3)C2=O)n1 [Example 27, (R)-9-(2-hydroxy-2-(4-methyl-1-oxo-1,3-dihydroisobenzofuran-5-yl)ethyl)-4-(3-methoxy-1,2,4-thiadiazol-5-yl)-1-oxa-4,9-diazaspiro[5.5]undecan-5-one] | 25 nM
Cc1nsc(N2CCOC3(CCN(C[C@H](O)c4ccc5c(c4C)COC5=O)CC3)C2=O)n1 [Example 28, (R)-9-(2-hydroxy-2-(4-methyl-1-oxo-1,3-dihydroisobenzofuran-5-yl)ethyl)-4-(3-methyl-1,2,4-thiadiazol-5-yl)-1-oxa-4,9-diazaspiro[5.5]undecan-5-one] | 123 nM
Cc1c([C@@H](O)CN2CCC3(CCCN(c4ccc(=O)n(C)n4)C3=O)CC2)ccc2c1COC2=O [Example 29, (R)-9-(2-hydroxy-2-(4-methyl-1-oxo-1,3-dihydroisobenzofuran-5-yl)ethyl)-2-(1-methyl-6-oxo-1,6-dihydropyridazin-3-yl)-2,9-diazaspiro[5.5]undecan-1-one] | 145 nM
Cc1c([C@@H](O)CN2CCC3(CC2)CC(=O)N(c2ccc(=O)n(C)n2)C3)ccc2c1COC2=O [Example 30, (R)-8-(2-hydroxy-2-(4-methyl-1-oxo-1,3-dihydroisobenzofuran-5-yl)ethyl)-2-(1-methyl-6-oxo-1,6-dihydropyridazin-3-yl)-2,8-diazaspiro[4.5]decan-3-one] | 95.1 nM
COc1nccc(N2CC3(CCN(C[C@H](O)c4ccc5c(c4C)COC5=O)CC3)CC2=O)n1 [Example 31, (R)-8-(2-hydroxy-2-(4-methyl-1-oxo-1,3-dihydroisobenzofuran-5-yl)ethyl)-2-(2-methoxypyrimidin-4-yl)-2,8-diazaspiro[4.5]decan-3-one] | 153 nM
Cc1c([C@@H](O)CN2CCC3(CC2)CCN(c2ccc(OC(F)(F)F)cc2)C3=O)ccc2c1COC2=O [Example 32, (R)-8-(2-hydroxy-2-(4-methyl-1-oxo-1,3-dihydroisobenzofuran-5-yl)ethyl)-2-(4-(trifluoromethoxy)phenyl)-2,8-diazaspiro[4.5]decan-1-one] | 465 nM
Cc1c([C@@H](O)CN2CCC3(CC2)CCN(c2ccc(C(F)F)nc2)C3=O)ccc2c1COC2=O [Example 33, (R)-2-(6-(difluoromethyl)pyridin-3-yl)-8-(2-hydroxy-2-(4-methyl-1-oxo-1,3-dihydroisobenzofuran-5-yl)ethyl)-2,8-diazaspiro[4.5]decan-1-one] | 63.1 nM
Cc1c([C@@H](O)CN2CCC3(CC2)CCN(c2cc(-c4ccccc4)no2)C3=O)ccc2c1COC2=O [Example 34, (R)-8-(2-hydroxy-2-(4-methyl-1-oxo-1,3-dihydroisobenzofuran-5-yl)ethyl)-2-(3-phenylisoxazol-5-yl)-2,8-diazaspiro[4.5]decan-1-one] | 505 nM
Cc1c([C@@H](O)CN2CCC3(CC2)CCN(c2cccnc2)C3=O)ccc2c1COC2=O [Example 35, (R)-8-(2-hydroxy-2-(4-methyl-1-oxo-1,3-dihydroisobenzofuran-5-yl)ethyl)-2-(pyridin-3-yl)-2,8-diazaspiro[4.5]decan-1-one] | 379 nM
COc1ccc(N2CCC3(CCN(C[C@H](O)c4ccc5c(c4C)COC5=O)CC3)C2=O)nn1 [Example 36, (R)-8-(2-hydroxy-2-(4-methyl-1-oxo-1,3-dihydroisobenzofuran-5-yl)ethyl)-2-(6-methoxypyridazin-3-yl)-2,8-diazaspiro[4.5]decan-1-one] | 393 nM
Cc1c([C@@H](O)CN2CCC3(CC2)CCN(c2cncnc2)C3=O)ccc2c1COC2=O [Example 37, (R)-8-(2-hydroxy-2-(4-methyl-1-oxo-1,3-dihydroisobenzofuran-5-yl)ethyl)-2-(pyrimidin-5-yl)-2,8-diazaspiro[4.5]decan-1-one] | 676 nM
Cc1c([C@@H](O)CN2CCC3(CC2)CCN(c2cncc(F)c2)C3=O)ccc2c1COC2=O [Example 38, (R)-2-(5-fluoropyridin-3-yl)-8-(2-hydroxy-2-(4-methyl-1-oxo-1,3-dihydroisobenzofuran-5-yl)ethyl)-2,8-diazaspiro[4.5]decan-1-one] | 82.5 nM
[2H]C([2H])([2H])Oc1nccc(N2CCC3(CCN(C[C@H](O)c4ccc5c(c4C)COC5=O)CC3)C2=O)n1 [Example 39, (R)-8-(2-hydroxy-2-(4-methyl-1-oxo-1,3-dihydroisobenzofuran-5-yl)ethyl)-2-(2-methoxypyrimidin-4-yl)-2,8-diazaspiro[4.5]decan-1-one (methoxy-d3)] | 38.8 nM
COc1ncc(N2CCC3(CCN(C[C@H](O)c4ccc5c(c4C)COC5=O)CC3)C2=O)cn1 [Example 40, (R)-8-(2-hydroxy-2-(4-methyl-1-oxo-1,3-dihydroisobenzofuran-5-yl)ethyl)-2-(2-methoxypyrimidin-5-yl)-2,8-diazaspiro[4.5]decan-1-one] | 142 nM
Cc1nccc(N2CCC3(CCN(C[C@H](O)c4ccc5c(c4C)COC5=O)CC3)C2=O)n1 [Example 41, (R)-8-(2-hydroxy-2-(4-methyl-1-oxo-1,3-dihydroisobenzofuran-5-yl)ethyl)-2-(2-methylpyrimidin-4-yl)-2,8-diazaspiro[4.5]decan-1-one] | 193 nM
COc1cc(N2CCC3(CCN(C[C@H](O)c4ccc5c(c4C)COC5=O)CC3)C2=O)nc(OC)n1 [Example 42, (R)-2-(2,6-dimethoxypyrimidin-4-yl)-8-(2-hydroxy-2-(4-methyl-1-oxo-1,3-dihydroisobenzofuran-5-yl)ethyl)-2,8-diazaspiro[4.5]decan-1-one] | 842 nM
Cc1c([C@@H](O)CN2CCC3(CC2)CCN(c2ccnc(N(C)C)n2)C3=O)ccc2c1COC2=O [Example 43, (R)-2-(2-(dimethylamino)pyrimidin-4-yl)-8-(2-hydroxy-2-(4-methyl-1-oxo-1,3-dihydroisobenzofuran-5-yl)ethyl)-2,8-diazaspiro[4.5]decan-1-one] | 521 nM
CCOc1nccc(N2CCC3(CCN(C[C@H](O)c4ccc5c(c4C)COC5=O)CC3)C2=O)n1 [Example 44, (R)-2-(2-ethoxypyrimidin-4-yl)-8-(2-hydroxy-2-(4-methyl-1-oxo-1,3-dihydroisobenzofuran-5-yl)ethyl)-2,8-diazaspiro[4.5]decan-1-one] | 66.6 nM
